These results are taken from patent US10907168B2, “Jasmonic acid pathway activator” (MEDICAGO INC., priority 2015, dated 2021).

The test system of one assay is A. tumefaciens VirE1. In words: Real-time RT PCR of VirE1 transcripts in agroinfiltrated leaves. It counts as in vivo, Agrobacterium tumefaciens. Particulars: 1 mM, seven days post-treatment. On the procedure: mRNA transcripts for C5-1 and A. tumefaciens virulence proteins VirB1 and VirE1 were assayed by real-time RT PCR using an ABI PRISM 7500 Fast real-time PCR apparatus, system version 2.0.1 (Applied Biosystems, Carlsbad Calif., U.S.A.). Total RNA was extracted from two 1-cm^2 leaf discs collected on the third main stem leaf (Robert et al., 2013) using the Qiagen RNeasy plant mini kit (Qiagen), following the supplier's instructions. RNA samples were treated with DNase I (Roche Diagnostics) to remove contaminant DNA and assessed for quality and quantity using a Nanodrop® ND-1000 spectrophotometer (NanoDrop Technologies, Wilmington Del., USA). First-strand cDNA was synthesized from 500 ng of total RNA using 4 units of Omniscript reverse transcriptase (Qiagen) and 1 μM of oligo-dT (15) nucleotides (Roche). PCR reactions contained 10 μl of Fast SYBR Green PCR Master Mix (Applied Biosystems), 2 μl of cDNA template, and 2.5 μl each of appropriate forward and reverse primers at 625 nM final concentration (Table 1). A no-template mixture control was included in each 96-well plate. Amplification rounds consisted of a 20-s denaturation step at 95° C., followed by 40 two-step cycles of 3 s at 95° C. and 30 s at 60° C. […]

Assay [1] relates to trypsin-like S1 Ser proteases. Put plainly: Protease assay in leaf crude extracts, Z-Arg-MCA substrate. It counts as in vivo, Nicotiana benthamiana. To be noted: 0.5 and 1 mM doses, seven days post-treatment. Here is the method: Forty-two day-old N. benthamiana plants grown in greenhouse were used for the experiments. Each plant was sprayed evenly with 50 ml of 0.5 mM, 1 mM or 2 mM MeJA in water containing 0.1% (v/v) Triton X-100 (Sigma-Aldrich, Mississauga ON, Canada), or with 50 ml of 1 mM arachidonic acid (Girard et al., 2007) in the same solvent, and transferred for seven days in a Conviron growth chamber (Conviron, Winnipeg MB, Canada). Plants sprayed with 50 ml of 0.1% (v/v) Triton X-100 in water were used in parallel as negative controls to avoid confounding effects due to experimental conditions. […]
Whole leaf proteins were extracted from three 1-cm^2 leaf discs in 400 μl of ice-cold 50 mM Tris-HCl, pH 7.5, containing 150 mM NaCl, by disrupting the leaf samples with tungsten carbide beads (Qiagen, Mississauga ON, Canada) in a Mini-Beadbeater apparatus (BioSpec, Bartlesville Okla., USA). […] RuBisCO small subunit was detected using polyclonal IgG raised in rabbit against a synthetic small subunit peptide (Agrisera, Vännäs, Sweden) and alkaline phosphatase-conjugated goat anti-rabbit IgG as secondary antibodies (Sigma-Aldrich). RuBisCO large subunit was detected using polyclonal IgG raised in hen against a synthetic large subunit peptide (Agrisera) and alkaline phosphatase-conjugated goat anti-chicken IgG as secondary antibodies (Sigma-Aldrich). […]

Assay [2] relates to cathepsin D/E-like A1 Asp proteases. In words: Protease assay in leaf crude extracts, MOCAc substrate. Particulars: seven days post-treatment. It counts as in vivo, Nicotiana benthamiana.

As to `CC/C=C\C[C@H]1C(=O)CC[C@@H]1CC(=O)OC` [MeJA, methyl jasmonate], the “VirE1 transcription versus control leaves” value with A. tumefaciens VirE1 is recorded as “no positive effect”. The trypsin-like activity result in assay [1] was “minimal or no increase in activity”. Also, the “cathepsin D/E-like activity” value in assay [2] (agroinfiltrated leaves) was “also observed in agroinfiltrated leaves”; in assay [2] (uninfiltrated plants, P<0.001), “dose-dependent decrease”.
